Measurements taken from patent publication US20260198495A1, “BINARY INSECTICIDE COMPOSITION AND USE THEREOF” (SHENYANG SINOCHEM AGROCHEMICALS R & D CO., LTD., priority 2022, published 2026).
In brackets after ≈: the same amount, converted by molar mass.

Legend:
Type in all cases: in vivo
[1] = tested on: 3rd-instar larvae of Spodoptera exigua Hübner; test: Joint toxicity of I-72 + emamectin benzoate, leaf-disk dipping, Example 9, Table 9; conditions: Spodoptera exigua, cabbage leaf-disk dipping, 72 h, A = compound I-72, B = emamectin benzoate, read-out: LC50
Excerpt: Test subject: 3rd-instar larvae of Spodoptera exigua Hübner, a sensitive strain reared indoors.
Experimental method: the dipping method was adopted. The cabbage leaves cultivated in the greenhouse were taken, the surface wax layer was removed, and leaf disks with a diameter of 3 cm were made with a puncher. The leaf disks were dipped in the prepared pesticide solution for 10 s, and then put into a 9-cm-diameter Petri dish lined with filter paper. After natural air-drying in the shade, the standard test insects were introduced, with 10 insects placed in each dish and 3 replicates performed. The treated test insects were placed in an observation room under certain conditions. The reaction of the test insects was regularly observed, and the number of dead and live insects was investigated 72 h later.
The test conditions, the preparation of the pesticide solution and the evaluation method were the same as those in Example 1.

[2] = tested on: Thrips flavus Schrank nymphs; test: Joint toxicity of I-72 + spirotetramat, Example 26, Table 26; conditions: A = compound I-72, B = spirotetramat, eggplant seedling spraying, 48 hours, read-out: LC50
Experimental: Test target: Thrips flavus Schrank nymphs.
(§1) Preparation of the pesticide solution: according to different test requirements, the test samples were accurately weighed respectively with an electronic analytical balance. The technical pesticides were dissolved in acetone, and then diluted with 0.1% Tween 80 water into a series of pesticide solutions with a certain concentration gradient according to the experimental design dosage.
Experimental method: first, eggplant seedlings with Thrips flavus Schrank were selected, and the base number was counted. Then, uniform spraying was performed with the pesticide solution in the order from low to high doses according to the experimental design, with 2 mL for each seedling and 3 replicates for each treatment. In addition, a blank control was set up.
(§2) The treated test materials were placed in an observation room, and the temperature, humidity and illumination of the observation room could be adjusted as needed. The number of dead and live insects was investigated 48 hours later. […] Then, the co-toxicity coefficient of each ratio was calculated using the Sun Y-P method to evaluate the mixing effect (the same as in Example 1).

[3] = tested on: Unaspis yanonensis Kuwana nymphs; test: whole plant or invertebrate; conditions: foliar, A = compound I-72, B = spirotetramat, citrus leaf dipping, 120 hours, read-out: LC50
Experimental: Test target: Unaspis yanonensis Kuwana nymphs.
as §1
Experimental method: the activity of the mixture against Unaspis yanonensis Kuwana nymphs on citrus was determined by adopting the dipping method. First, the collected citrus leaves with Unaspis yanonensis Kuwana nymphs were treated with the pesticide solution in the order from low dosage to high dosage according to the experimental design. After air-drying, the petioles were kept moist with degreased cotton, and then the leaves were placed in a Petri dish, with 3 replicates for each treatment. In addition, a blank control was set up.
The treated test materials were placed in an observation room, and the temperature, humidity and illumination of the observation room could be adjusted as needed. The number of dead and live insects was investigated 120 hours later.

[4] = tested on: 2nd-instar larvae of Spodoptera exigua Hübner; test: Joint toxicity of I-72 + lufenuron, Example 54, Table 54; conditions: foliar, A = compound I-72, B = lufenuron, cabbage leaf dipping, 72 hours, read-out: LC50
Experimental: Test target: 2nd-instar larvae of Spodoptera exigua Hübner.
as §1
(§3) Experimental method: first, cabbage leaves were selected and dipped in the prepared pesticide solution for 10 s in the order from low dosage to high dosage according to the experimental design. After natural air-drying in the shade, they were placed in a 9-cm-diameter Petri dish with filter paper, and uniform and healthy test insects were introduced, with 10 insects for each treatment and 3 replicates for each treatment. In addition, a blank control was set up.
as §2, with “72” for “48”

[5] = tested on: 3rd-instar larvae of Chilo suppressalis (Walker); test: Joint toxicity of I-72 + chlorantraniliprole, Example 57, Table 57; conditions: A = compound I-72, B = chlorantraniliprole, rice stem dipping, 72 hours, read-out: LC50
Experimental: Test target: 3rd-instar larvae of Chilo suppressalis (Walker).
as §1
as §3, with “tender rice stems” for “cabbage leaves”, “control (CK)” for “control”
as §2, with “72” for “48”, “effect,” for “effect (the same”, “1.” for “1).”

[6] = tested on: 2nd-instar larvae of Plutella xylostella; test: Joint toxicity of I-72 + tetraniliprole, Example 58, Table 58; conditions: Plutella xylostella, foliar; A = compound I-72, B = tetraniliprole; cabbage leaf dipping; 72 hours; read-out: LC50
Experimental: Test target: 2nd-instar larvae of Plutella xylostella.
as §1, §3
as §2, with “72” for “48”

[7] = tested on: Myzus persicae (Sulzer) nymphs; test: Joint toxicity of I-72 + pymetrozine, Example 73, Table 73; conditions: A = compound I-72, B = pymetrozine, cabbage leaf spraying, 48 hours, read-out: LC50
Experimental: Test target: Myzus persicae (Sulzer) nymphs, a sensitive strain reared indoors.
as §1
Experimental method: first, cabbage leaves with uniform and consistent Myzus persicae (Sulzer) were selected, with about 30-40 insects on each leaf. Then, they were evenly sprayed with the pesticide solution in the order from low dosage to high dosage according to the experimental design, with 1.5 mL of the solution for each leaf and 3 replicates for each treatment. In addition, a blank control was set up.
as §2, with “effect,” for “effect (the same”, “1.” for “1).”

## CN(C(=O)c1ccc2c(c1)OC(F)(F)O2)c1cccc(C(=O)Nc2c(Br)cc(C(F)(C(F)(F)F)C(F)(F)F)cc2OC(F)F)c1F [Compound I-72]
[1]
  LC50: 0.241 µg/mL
[2]
  LC50: 2.04 µg/mL
[3]
  LC50: 75.2 µg/mL (≈ 101 µM)
[4]
  LC50: 0.273 µg/mL
[5]
  LC50: 1.05 µg/mL
[6]
  LC50: 0.0888 µg/mL
[7]
  LC50: 7.96 µg/mL
